Data set [1] relates to laser-induced choroidal neovascularization in the mouse. The experiment in a line: Mouse laser-induced CNV, topical NSAID drops. It counts as in vivo. The settings on record: for CNV lesions at Bruch's membrane rupture sites vs vehicle: follow-up experiment. As to the method: METHODS: Choroidal neovascularization was generated by modification of a previously described technique [Tobe, 1998 #448]. Briefly, 4 to 5 week old female C57BL/6J mice were anesthetized with ketamine hydrochloride (100 mg/kg body weight) and the pupils were dilated with 1% tropicamide. Three burns of 532 nm diode laser photocoagulation (75 μm spot size, 0.1 seconds duration, 120 mW) were delivered to each retina using the slit lamp delivery system of an OcuLight GL Photocoagulator (Iridex, Mountain View, Calif.) and a hand held cover slide as a contact lens. Burns were performed in the 9, 12, and 3 o'clock positions of the posterior pole of the retina. Production of a bubble at the time of laser, which indicates rupture of Bruch's membrane, is an important factor in obtaining CNV [Tobe, 1998 #448], so only burns in which a bubble was produced were included in the study. […] In some experiments, both eyes were treated with drug and these mice were compared to littermates in which both eyes were treated with vehicle. In other experiments, one eye was treated with drug and the fellow eye was treated with vehicle. Eyes were rapidly dissected for choroidal flat mounts or frozen in optimum cutting temperature embedding compound (OCT; Miles Diagnostics, Elkhart, Ind.).
The sizes of CNV lesions were measured in choroidal flat mounts (Edelman and Castro, 2000). Mice used for the flat mount technique were anesthetized and perfused with 1 ml of phosphate-buffered saline containing 50 mg/ml of fluorescein-labeled dextran (2×10^6 average mw, Sigma, St. Louis, Mo.) as previously described (Tobe et al., 1998a). The eyes were removed and fixed for 1 hour in 10% phosphate-buffered formalin. The cornea and lens were removed and the entire retina was carefully dissected from the eyecup. Radial cuts (4-7, average 5) were made from the edge to the equator and the eyecup was flat mounted in Aquamount with the sclera facing down. Flat mounts were examined by fluorescence microscopy on an Axioskop microscope (Zeiss, Thornwood, N.Y.) and images were digitized using a 3 color CCD video camera (IK-TU40A, Toshiba, Tokyo, Japan) and a frame grabber. Image-Pro Plus software (Media Cybernetics, Silver Spring, Md.) was used to measure the total area of hyperfluorescence associated with each burn, corresponding to the total fibrovascular scar. The areas within each eye were averaged to give one experimental value per eye for plotting the areas in the figures.
In some mice, the eyes were rapidly removed and frozen in optimum cutting temperature embedding compound (OCT; Miles Diagnostics, Elkhart, Ind.). Ten μm frozen sections were cut through entire lesions and the sections were histochemically stained with biotinylated Griffonia simplicifolia lectin B4 (GSA, Vector Laboratories, Burlingame, Calif.) which selectively binds to vascular cells. Slides were incubated in methanol/H2O2 for 10 minutes at 4° C., washed with 0.05 M Tris-buffered saline, pH 7.6 (TBS), and incubated for 30 minutes in 10% normal porcine serum. Slides were incubated 2 hours at room temperature with biotinylated GSA and after rinsing with 0.05M TBS, they were incubated with avidin coupled to peroxidase (Vector Laboratories) for 45 minutes at room temperature. The slides were developed with HistoMark Red (Kirkegaard and Perry, Cabin John, Md.) to give a red reaction product and counter stained with Contrast Blue (Kirkegaard and Perry).

The next data set has as its system VEGF mRNA. The experiment in a line: Semi-quantitative RT-PCR of retinal VEGF mRNA in mice with ischemic retinopathy. It counts as in vivo, mouse. The settings on record: P12-P17. As to the method:
Mice with ischemic retinopathy were treated with 0.1% or 0.5% Nepafenac drops or vehicle drops four times a day between P12 and P17 and then sacrificed and retinal RNA was isolated using the guanidine isothiocyanate method as described by Chomczynski and Sacchi [Chomczynski, 1987 #30]. Reverse transcription was carried out with 0.5 μg of total RNA, reverse transcriptase (SuperScript II, Life Technologies, Gaithersburg, Md.), and 5.0 μM oligo d(T) primer. Aliquots of the cDNAs were used for PCR amplification with primers specific for VEGF, (5′-TTACTGCTGTACCTCCACC-3′) and (5′-ACAGGACGGCTTGAAGATG-3′). Titrations were performed to insure that PCR reactions were carried out in the linear range of amplification. Mouse S16 ribosomal protein primers (5′-[…]-3′ and 5′-[…]-3′) were used to provide an internal control for the amount of template in the PCR reactions.

Data set [2] relates to preretinal neovascularization in the mouse model of oxygen-induced retinopathy. The experiment in a line: Mouse model of oxygen-induced ischemic retinopathy, topical drops. The note with it: for retinal (preretinal) neovascularization vs vehicle: P12-P17. It is filed as in vivo. As to the method: METHODS: Ischemic retinopathy was produced in C57BL/6J mice by a method described by Smith et al [Smith, 1994 #50]. Seven-day-old (P7) mice and their mothers were placed in an airtight incubator and exposed to an atmosphere of 75±3% oxygen for 5 days. Incubator temperature was maintained at 23±2° C., and oxygen was measured every 8 hours with an oxygen analyzer. After 5 days, the mice were removed from the incubator, placed in room air, and drug treatment was begun. Mice were given one drop four times a day in masked fashion. At P17, after 5 days of treatment, mice were sacrificed, eyes were rapidly removed and frozen in OCT.
Ocular frozen sections (10 μm) were histochemically stained with GSA as described above except that diaminobenzidine was used to give a brown reaction product. Slides were counterstained with eosin, which stains the internal limiting membrane and mounted with Cytoseal. To perform quantitative assessments, 10 μm serial sections were cut through the entire eye starting with sections that included the iris root on one side of the eye and proceeding to the iris root on the other side. Every tenth section, roughly 100 μm apart, were stained with GSA, examined with an Axioskop microscope, and images were digitized using a 3 CCD color video camera and a frame grabber. Image-Pro Plus software was used to delineate GSA-stained cells on the surface of the retina and their area was measured. For plotting the area measurements for the figure, the mean of the measurements from each eye was used as a single experimental value.

Data set [3] concerns retinal vasculature and neuronal function in the STZ-diabetic rat. The experiment in a line: STZ-diabetic rat, topical eyedrops for 2 months or 9 months. It is filed as in vivo. As to the method: Methods. Streptozotocin (STZ)-induced diabetic rats were assigned to 3 groups (untreated control, Nepafenac eyedrops, and vehicle eyedrops) for comparison to nondiabetic controls. Eyedrops were administered in both eyes 4 times/day using both subacute (2 mos) or chronic dosing paradigms (9 mos). During the 2 month study, prostaglandin E2 (PGE2), cyclooxygenase (COX)-2, and VEGF were measured by immunoassay, superoxide generation was measured by bioluminescence, activities of caspases 3 and 6 were measured fluorimetrically, and nitric oxide (NO) was estimated from levels of nitrite plus nitrate. Moreover, retinal leukostasis was quantified after intravenous perfusion with FITC-concanavalin A. During the 9-month study, vascular lesions associated with diabetic retinopathy were quantitated after isolation of the retinal vasculature by the trypsin digest technique, and loss of cells in the ganglion cell layer was evaluated in retinal cross-sections. In the chronic dosing study, retinal function also was assessed by measuring electroretinograms (ERGs) under dark and light adapted conditions to evaluate rod and cone pathways, respectively. The impact of topical ocular administration on corneal protease activity was assessed with MMP mRNA analysis and zymography. The signals were imported into Matlab™ (Mathworks Inc.) for further processing and the oscillatory potentials (OP's) were isolated using a 9 pole Butterworth filter with 34 Hz cutoff frequency (unity gain above 40 Hz and >12 dB attenuation 0 to 30 Hz). To simplify the analysis of OP timing the summed latency was calculated for OP's 1-4 similar to Hancock and Kraft, where TTP=(t1+t2+t3+t4) and tx=the time to peak of OPx.

Another data set relates to visual acuity. The note with it: Phase III, at 24 months, up to; cited from earlier work.
The mark [4] stands for this setting: 0.1% drops 4 times a day for 14 days.
The mark [5] stands for this setting: eyedrops 4 times/day, 2 months of diabetes.

“Also recorded” adds a separate entry of the source.

On to `O=C(O)Cc1ccccc1Nc1c(Cl)cccc1Cl` [diclofenac], for which the “CNV lesions at Bruch's membrane rupture sites vs vehicle” value in data set [1] (setting [4]) is “no difference from vehicle-treated eyes”.
For the molecule `NC(=O)Cc1cccc(C(=O)c2ccccc2)c1N` [nepafenac, 2-Amino-3-benzoyl-phenylacetamide], the “retinal VEGF mRNA vs vehicle” value with VEGF mRNA (0.1% drops 4 times a day) and with VEGF mRNA (0.5% drops 4 times a day) was “less VEGF mRNA than retinas from eyes treated with vehicle” throughout. Moreover, the “CNV lesions at Bruch's membrane rupture sites vs vehicle” value is “significantly smaller areas of CNV at Bruch's membrane rupture sites than did eyes treated with vehicle” in data set [1] (0.03% drops 4 times a day for 14 days); “significantly smaller than those in eyes treated with vehicle” in data set [1] (0.03% drops 4 times a day for 14 days, listed as nepafanac); “significantly smaller areas of CNV at Bruch's membrane rupture sites than did eyes treated with vehicle” in data set [1] (setting [4]); “significantly smaller than those in eyes treated with vehicle” in data set [1] (0.1% drops 4 times a day for 14 days, listed as nepafanac). Moreover, the “CNV area vs vehicle” value in data set [1] (0.1% drops 4 times a day, 2 weeks, first experiment) is given as “significantly smaller CNV lesions than treatment with vehicle”; in data set [1] (0.5% drops 4 times a day, 2 weeks) it was “significantly smaller CNV lesions than treatment with vehicle”. The “area of CNV in treated eye compared to vehicle-treated fellow eye” value in data set [1] (0.1% drops in one eye, vehicle in fellow eye) is on record as “significantly less”. The “inhibition of laser-induced choroidal neovascularization” value in data set [1] (topical, mouse (FIG. 10)) is “inhibits laser-induced choroidal neovascularization”. Also, the “retinal (preretinal) neovascularization vs vehicle” value in data set [2] (0.1% drops 4 times a day) and in data set [2] (0.5% drops 4 times a day) was “significantly less retinal neovascularization; also recorded: significantly less preretinal NV” throughout. Besides, the “inhibition of preretinal neovascularization” value in data set [2] (topical, mouse OIR (FIG. 11)) is given as “inhibits preretinal neovascularization”. Also, in data set [3] (0.3% topical, chronic dosing), the “protection against OP (oscillatory potential) delays, ERG” value is reported as “completely protected”. For the same molecule, the “inhibition of morphologic vascular changes” value in data set [3] (9 months of diabetes, STZ-diabetic rat (FIG. 12)) was “inhibits morphologic vascular changes present at 9 months of diabetes”. In addition, the “diabetes-induced activation of caspases 3 and 6 in retina” value in data set [3] (setting [5]) is listed as “partially inhibited”. Besides, the “retinal VEGF or NO levels” value in data set [3] (setting [5]) is recorded as “no effect”. In data set [3] (eyedrops 4 times/day, chronic dosing (9 months)), the “TUNEL-positive capillary cells, acellular capillaries and pericyte ghosts” value is “significantly inhibited all of these retinal abnormalities”. In addition, the “corneal protease activity vs vehicle” value in data set [3] (topical, after 9 months of diabetes) is listed as “No significant changes”. In addition, the “OP summed latency (TTP) vs nondiabetic control animals” value in data set [3] (topical, chronic dosing) is given as “statistically no different than nondiabetic control animals”.
Regarding `O=C(c1ccccc1)c1ccc2n1CCC2C(=O)O` (centres unmarked) [ketorolac tromethamine], the “size of CNV lesions vs vehicle” value in data set [1] (0.5% drops 4 times a day for 1 week) is “no difference in the size of CNV lesions between the two groups”. Moreover, in data set [1] (0.5% drops or vehicle 4 times a day for 1 week), the survival entry is recorded as “All mice survived”. The “CNV vs vehicle in surviving mice” value in data set [1] (0.5% drops, 2 weeks, numbers insufficient for statistics) is given as “did not appear to have less CNV than mice treated with vehicle”. Moreover, the mortality entry in data set [1] (0.5% drops, two weeks) is “high mortality”.

B1: ranibizumab (antibody, chains of the INN, looked up, V domains shown)
VH: EVQLVESGGGLVQPGGSLRLSCAASGYDFTHYGMNWVRQAPGKGLEWVGWINTYTGEPTYAADFKRRFTFSLDTSKSTAYLQMNSLRAEDTAVYYCAKYPYYYGTSHWYFDVWGQGTLVTVSS
VL: DIQLTQSPSSLSASVGDRVTITCSASQDISNYLNWYQQKPGKAPKVLIYFTSSLHSGVPSRFSGSGSGTDFTLTISSLQPEDFATYYCQQYSTVPWTFGQGTKVEIK
modifications: Fab
With B1, in the data set with visual acuity, the “patients with improved visual acuity” value is on record as 35-40%.

The values are drawn from patent US20090105245A1, “METHODS FOR TREATING MACULAR EDEMA AND OCULAR ANGIOGENESIS USING AN ANTI-INFLAMMATORY AGENT AND A RECEPTOR TYROSINE KINASE INHIBITOR” (priority 2006, published 2009).
